Legend:
[1] = tested on: iPSC; experiment: CDy1 staining of iPSC colonies generated from Oct4-GFP transgenic mouse MEF; type: cell-based
Procedure: The retroviral packaging cell, PlatE cell, was maintained in DMEM containing 10% FBS, 100 U/ml penicillin, 100 μg/ml streptomycin, 10 μg/mlblasticidin S, and 1 μg/ml puromycin. For the generation of retroviruses, 40 μg of each retroviral vector expressing each mouse Oct4, Sox2, Klf4, and c-Myc was transfected together using Lipofectamine™ 2000 (Invitrogen, Carlsbad, Calif.) into PlatE cells plated at a density of 8×10^6 cells/10 cm cell culture dish and cultured overnight in DMEM containing 10% FBS. Medium was changed five hours after transfection to normal maintenance medium and incubated further in a humidified atmosphere of 5% CO2 and 95% air at 37° C. Culture supernatant was harvested 48 hours after transfection, filtered through a 0.45 μm syringe filter, concentrated by using amicon ultra-15 Centrifugal filter units (Millipore, Billerica, Mass.), and stored at −80° C. until use. For reprogramming, MEFs prepared from E13.5 B6; CBA-Tg(Pou5f1-EGFP)2Mnn/J mouse (Jackson Laboratory, Bar Harbor, Me.) embryo were infected with retrovirus mixture eight hours later. Polybrene (Sigma-Aldrich, St. Louis, Mo.) was added at a concentration of 10 μg/ml to increase virus adsorption. Infected MEFs were harvested 48 hours later by trypsinization and plated onto mytomycin C treated MEF feeder cells. The cells were maintained in mESC culture medium that was changed every day until designated time points.
The reprogramming was performed in a 6-well culture dish by retroviral introduction of four transcriptions factors: Oct4, Sox2, Klf4, and c-Myc (Takahashi et al., “Induction of Pluripotent Stem Cells from Mouse Embryonic and Adult Fibroblast Cultures by Defined Factors,” Cell, 126(4):663-676 (2006), which is hereby incorporated by reference in its entirety). iPSC generation was verified by GFP expression, alkaline phosphatase assay, and immunostaining of SSEA-1 at 17 days post infection (“dpi”). […] When the 155 colonies grown in 6-well plate cells were treated with CDy1 at 17 dpi, 101 colonies (65%) were both CDy1 and GFP positive, 26 (17%) were CDy1-only positive, 4 (3%) were GFP-only positive and 24 (15%) were negative both for CDy1 and GFP, despite the fact that the morphology of the colonies was indistinguishable (FIG. 9).
In a cell culture treated with CDy1 at an earlier time point of iPSC generation (10 dpi), increasing numbers of CDy1-stained colonies started to show GFP signal during the following days (FIG. 10A). To perform a more systematic analysis, the cells were stained with CDy1 at 2 dpi (i.e., when iPSC was not distinguishable by any means) and the CDy1 and GFP signals were tracked by daily acquisition of cell images using an ImageXpress^MICRO system. At 10 dpi, when small colonies started to appear, 342 CDy1-positive but GFP-negative colonies were selected and their GFP expression was followed until 25 dpi. An increasing number of colonies started to express GFP during this period, and 338 (99%) out of the 342 tracked colonies were GFP-positive at 25 dpi (FIG. 10B).

[2] = tested on: mitochondria in mESC; experiment: Co-staining of mESC with CDy1 and MITOTRACKER Deep Red 633; type: cell-based, mouse
Procedure: In this experiment mESC were incubated with 500 nM CDy1, 200 nM MITOTRACKER® Deep Red 633, and 4 mg/ml Hoechst for 30 minutes at 37° C. and washed with PBS two times. The cells were mounted on slide glass and the images were taken using a Nikon ECLIPSE Ti fluorescence microscope equipped with a ×100 objective lens (Pearson's correlation coefficient=0.88; scale bar, 5 μm).
In a previous study (Kim et al., “Control of Muscle Differentiation by a Mitochondria-Targeted Fluorophore,” J. Am. Chem. Soc. 132(2): 576-579 (2009), which is hereby incorporated by reference in its entirety), CDy1 was among the compounds targeting mitochondria. To examine whether CDy1 localizes in mitochondria in mESC, the cells were co-stained with CDy1 and a mitochondria-staining commercial dye MITOTRACKER® Deep Red 633. […] In addition to the mitochondrial membrane potential which sequesters many cationic rhodamine and rosamine compounds, other factors such as stem cell specific proteins appear to play roles in the entry and retainment of CDy1 rendering it stem cell selective.

[3] = tested on: mESC; experiment: Comparison of CDy1 and ALDEFLUOR staining in mESC; type: cell-based, mouse; conditions: fluorescence microscopy
Procedure: (§1) In this experiment, the cells cultured on 6-well plates were incubated with 1 μM ALDEFLUOR® for one hour at 37° C. and then washed with PBS three times before ALDEFLUOR® assay buffer was added. Bright field (“B.F”) and fluorescence (FITC filter for ALDEFLUOR® and TRITC filter for CDy1) images were taken using a Nikon ECLIPSE Ti fluorescence microscope (Scale bars, 100 μm).
(§2) Among the few fluorescent dyes used for stem cell staining (Zijlmans et al., “Modification of Rhodamine Staining Allows Identification of Hematopoietic Stem Cells with Preferential Short-term or Long-term Bone Marrow-Repopulating Ability,” Proc. Natl. Acad. Sci. USA, 92:8901-8905 (1995), which is hereby incorporated by reference in its entirety) is ALDEFLUOR® which employs a fluorescent substrate BODIPY-aminoacetaldehyde for aldehyde dehydrogenase (ALDH)1A1 (Storms et al., “Isolation of Primitive Human Hematopoietic Progenitors on the Basis of Aldehyde Dehydrogenase Activity,” Proc. Natl. Acad. Sci. USA, 96: 9118-9123 (1999), which is hereby incorporated by reference in its entirety). It has been used to identify and isolate certain types of stem cells including hematopoietic, neural, and mammary stem cells as well as cancer stem cells. Whether or not ALDEFLUOR® stains ESC has not been known. […] The stemness of hESC BG01V used in this study was verified by immunocytochemical staining of TRA-1-60 (FIG. 14).

[4] = tested on: human ESC (hESC) (BG01V); experiment: Comparison of CDy1 and ALDEFLUOR staining in hESC; type: cell-based; conditions: fluorescence microscopy
Procedure: as §1
BG01V cells cultured on MEF were selectively stained by CDy1. The expression of hESC marker TRA-1-60 in the CDy1-stained BG01V cells was detected by immunofluorescence staining (Scale bar, 100 μm).
Among the few fluorescent dyes used for stem cell staining (Zijlmans et al., “Modification of Rhodamine Staining Allows Identification of Hematopoietic Stem Cells with Preferential Short-term or Long-term Bone Marrow-Repopulating Ability,” Proc. Natl. Acad. Sci. USA, 92:8901-8905 (1995), which is hereby incorporated by reference in its entirety) is ALDEFLUOR® which employs a fluorescent substrate BODIPY-aminoacetaldehyde for aldehyde dehydrogenase (ALDH)1A1 (Storms et al., “Isolation of Primitive Human Hematopoietic Progenitors on the Basis of Aldehyde Dehydrogenase Activity,” Proc. Natl. Acad. Sci. USA, 96: 9118-9123 (1999), which is hereby incorporated by reference in its entirety). […]

[5] = tested on: human lung cancer cell line H522; experiment: Comparison of CDy1 and ALDEFLUOR staining in H522; type: cell-based; conditions: fluorescence microscopy
Procedure: as §1, §2

[6] = tested on: cells undergoing reprogramming to induced pluripotent stem cells (Oct4-GFP transgenic MEF); experiment: FACS isolation of cells undergoing reprogramming with CDy1 and counting of GFP-positive iPS cell colonies; type: cell-based, mouse; conditions: sorted by FACS at 10 dpi, 7% of total cell number
Procedure: Oct4-GFP transgenic mouse embryonic fibroblasts (MEF) transfected with retrovirus expressing Oct4, Sox2, Klf4, and c-Myc were incubated with CDy1 at 10 days post infection (dpi). The cells were harvested using trypsin-EDTA and CDy1^bright and CDy1^dim cells defined as 7% of the total cell number at each end were collected by FACS, plated in culture media, and allowed to grow until 20 dpi for counting the number of induced pluripotent stem (“iPS”) cell colonies which were identified by GFP signal (FIG. 15A).
Among the many cell colonies observed in the bright field images, GFP signal was detected from some of them by fluorescence excitation (FIG. 15B).

[7] = tested on: differentiated mESC; experiment: CDy1 staining of differentiated mESC after LIF removal; type: cell-based, mouse; conditions: three days culture without LIF
From the text: Morphologically distinguishable differentiated cells were observed after three days culture of mESC in the absence of LIF. As shown in the center panel, most of those cells were CDy1 negative, while some other cells that retained mESC morphology were stained by the dye.
On the other hand, removing the LIF from the culture media induced mESC differentiation and it was observed that some cells were morphologically distinguishable from mESC three days later. Most of the differentiated cells were not stained by CDy1, while some other cells with mESC morphology were stained by the dye showing a similar pattern with immunocytochemical staining by Oct4 antibody (FIG. 11).

[8] = tested on: Oct4-GFP transgenic MEF transfected with Oct4, Sox2, Klf4 and c-Myc; experiment: CDy1 staining of cells at early stages of reprogramming (fluorescence microscopy); type: cell-based, mouse; conditions: incubated for one hour
Procedure: Oct4-GFP transgenic MEF transfected with retrovirus expressing Oct4, Sox2, Klf4, and c-Myc were incubated with CDy1 at 3, 5, 7, and 9 dpi for one hour.
After excess CDy1 was washed out by replacing culture medium, fluorescent cell images were taken using fluorescence microscope.
At 3 and 5 dpi, any dramatic morphological differences between the cells were not observed by phase contrast bright field microscopy (FIG. 16).

CCCCN(CCCC)c1ccc2c(-c3cccc(CN4CCOCC4)c3)c3ccc(=N)cc-3oc2c1 [CDy1]
colonies negative both for CDy1 and GFP (number) ([1]; 17 dpi, of 155 colonies): 24 | colonies negative both for CDy1 and GFP (percent) ([1]; 17 dpi, of 155 colonies): 15% | colonies GFP-positive at 25 dpi (percent) ([1]; of 342 CDy1-positive but GFP-negative colonies selected at 10 dpi): 99% | colonies GFP-positive at 25 dpi (number) ([1]; of 342 CDy1-positive but GFP-negative colonies selected at 10 dpi, stained at 2 dpi): 338 | staining pattern compared with MITOTRACKER staining [2]: very similar to MITOTRACKER® staining | Pearson's correlation coefficient of CDy1 and MITOTRACKER co-localization ([2]; 500 nM CDy1, 200 nM MITOTRACKER Deep Red 633, 30 minutes at 37° C.): 0.88 | staining of mESC [3]: stained both | staining of hESC [4]: stained both | staining of H522 [5]: not | GFP-positive iPS cell colonies from CDy1dim cells [6]: no colonies | GFP-positive iPS cell colonies per well from CDy1bright cells [6]: 51 colonies per well | staining of differentiated cells [7]: not stained | staining at 3 and 5 dpi [8]: scattered single cells stained | staining at 7 and 9 dpi [8]: some of the clusters were stained
